Experimental data from patent US11046716B2, “Beta-lactamase inhibitors” (priority 2015, dated 2021).

Experiments:
AmpC = target: T1, AmpC (Enterobacter cloacae, UniProt P05364); assay: β-lactamase enzyme inhibition assay, p99 AmpC (nitrocefin substrate); type: biochemical
T1 construct: made in house; host or cells: E. coli BL21(DE3)
Method in brief: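 Native untagged β-lactamases were expressed in E. coli BL21(DE3), then purified by cation exchange and gel filtration. Enzyme was preincubated with inhibitor for 15 min at 37 °C before substrate was added. IC50 was taken from initial hydrolysis rates relative to no-inhibitor controls.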

SHV-5 = target: T2, SHV-5 (Klebsiella pneumoniae, UniProt P0A3M1); assay: β-lactamase enzyme inhibition assay, SHV-5 (cefotaxime substrate); type: biochemical
T2 construct: made in house; host or cells: E. coli BL21(DE3)
Method in brief: (§1)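 Native untagged β-lactamases were expressed in E. coli BL21(DE3), then purified by cation exchange and gel filtration. Enzyme was preincubated with inhibitor for 15 min at 37 °C before substrate was added. Imipenem (A300) served KPC-2 and cefotaxime (A260) served SHV-5. IC50 was taken from initial hydrolysis rates relative to no-inhibitor controls.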

[1] = system: E. coli expressing the Class A Extended Spectrum Beta-Lactamase (ESBL) CTX-M-15; assay: Broth microdilution MIC assay with ceftazidime, E. coli CTX-M-15; type: cell-based; conditions: Fixed CAZ (ceftazidime) 4 μg/mL; E. coli ESBL4 CTX-M-15
Method in brief: (§2)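 Visual MIC readout of the test compound after 16-20 hours at 37° C, measured in the presence of a constant 4 μg/ml β-lactam. Compound concentrations spanned 16 to 0.125 μg/mL in 2-fold steps in cation-adjusted Mueller Hinton broth.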

VIM-2 = target: T3, VIM-2 (Escherichia coli, UniProt Q5U7L7); assay: β-lactamase enzyme inhibition assay, VIM-2 (nitrocefin substrate); type: biochemical; conditions: Class B; nitrocefin substrate, 486 nm; read-out: VIM-2
T3 construct: made in house; host or cells: E. coli BL21(DE3)
Method in brief: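 Nitrocefin hydrolysis, read at 486 nm over 10 min, served as the measure of VIM-2 activity. The enzyme had been incubated with compound for 15 min at 37 °C before 100 μM substrate was added, and IC50 values were fitted from percent inhibition of the initial rate.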

[2] = system: K. pneumoniae expressing the Class A carbapenemase KPC-2; assay: Broth microdilution MIC assay with meropenem, K. pneumoniae KPC-2; type: cell-based; conditions: Fixed Mero (meropenem) 4 μg/mL; K. p. 156319 KPC-3
Method in brief: as §2

[3] = system: K. pneumoniae expressing the class A carbapenemase KPC-2 and the class B carbapenemase VIM-4; assay: Broth microdilution MIC assay with meropenem, K. pneumoniae KPC-2 and VIM-4; type: cell-based; conditions: Fixed Mero (meropenem) 4 μg/mL; K. p. A-1797 KPC-2 VIM-4
Method in brief: as §2

KPC-2 = target: T4, KPC-2 (Klebsiella pneumoniae, UniProt Q9F663); assay: β-lactamase enzyme inhibition assay, KPC-2 (imipenem substrate); type: biochemical; conditions: Class A; imipenem substrate, 300 nm; read-out: KPC-2
T4 construct: made in house; host or cells: E. coli BL21(DE3)
Method in brief: as §1

[4] = system: P. aeruginosa expressing the Class B carbapenemase VIM-2; assay: Broth microdilution MIC assay with meropenem, P. aeruginosa VIM-2; type: cell-based; conditions: Fixed Mero (meropenem) 4 μg/mL; P. aerug. 2775 VIM-2
Method in brief: as §2

OXA-48 = OXA-48 (UniProt Q6XEC0); assay: β-lactamase enzyme inhibition assay, Class D oxacillinase; type: biochemical; conditions: read-out: OXA-48
[5] = system: K. pneumoniae producing the Class D carbapenemase OXA-48; assay: Broth microdilution MIC assay with meropenem, K. pneumoniae OXA-48; type: cell-based; conditions: Fixed Mero (meropenem) 4 μg/mL; K. p. 11978 OXA-48
Method in brief: as §2

[6] = system: E. cloacae expressing the Class C P99; assay: Broth microdilution MIC assay with ceftazidime, E. cloacae P99; type: cell-based; conditions: Fixed CAZ (ceftazidime) 4 μg/mL; E. cl. 144200 p99 AmpC
Method in brief: as §2

T2 sequence (P0A3M1 22-286): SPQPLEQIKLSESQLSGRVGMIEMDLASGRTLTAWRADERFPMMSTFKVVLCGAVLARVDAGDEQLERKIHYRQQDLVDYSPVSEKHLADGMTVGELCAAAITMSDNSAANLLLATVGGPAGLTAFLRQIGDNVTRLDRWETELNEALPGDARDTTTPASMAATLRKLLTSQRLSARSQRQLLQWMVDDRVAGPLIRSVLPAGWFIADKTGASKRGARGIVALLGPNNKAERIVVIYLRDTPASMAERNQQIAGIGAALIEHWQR
T4 sequence (Q9F663 25-293, looked up): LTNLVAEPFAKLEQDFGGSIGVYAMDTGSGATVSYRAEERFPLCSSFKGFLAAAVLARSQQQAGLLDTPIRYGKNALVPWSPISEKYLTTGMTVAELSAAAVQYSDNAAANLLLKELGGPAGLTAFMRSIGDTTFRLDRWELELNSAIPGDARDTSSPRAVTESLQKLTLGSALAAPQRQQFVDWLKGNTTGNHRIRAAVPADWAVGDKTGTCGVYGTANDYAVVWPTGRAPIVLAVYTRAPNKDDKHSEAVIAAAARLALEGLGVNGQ
T1 sequence (P05364 21-381): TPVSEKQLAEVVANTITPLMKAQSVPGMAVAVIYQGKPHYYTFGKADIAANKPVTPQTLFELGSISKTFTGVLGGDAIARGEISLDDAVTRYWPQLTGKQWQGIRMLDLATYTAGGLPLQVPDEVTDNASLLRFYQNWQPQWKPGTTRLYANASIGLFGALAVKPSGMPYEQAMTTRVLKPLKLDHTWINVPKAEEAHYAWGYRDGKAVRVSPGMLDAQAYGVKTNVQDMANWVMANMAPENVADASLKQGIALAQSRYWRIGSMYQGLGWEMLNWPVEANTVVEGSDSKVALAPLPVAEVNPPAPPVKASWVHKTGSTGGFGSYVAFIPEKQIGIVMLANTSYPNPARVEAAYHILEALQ

Structure (SMILES) | IC50 (AmpC) [µM] | IC50 (SHV-5) [µM] | MIC (μg/mL) of Exemplary Compounds in presence of fixed β-lactams: E. coli ESBL4 CTX-M-15 [1] | IC50 (VIM-2) [µM] | MIC (μg/mL) of Exemplary Compounds in presence of fixed β-lactams: K. p. 156319 KPC-3 [2] | MIC (μg/mL) of Exemplary Compounds in presence of fixed β-lactams: K. p. A-1797 KPC-2 VIM-4 [3] | IC50 (KPC-2) [µM] | MIC (μg/mL) of Exemplary Compounds in presence of fixed β-lactams: P. aerug. 2775 VIM-2 [4] | IC50 (OXA-48) [µM] | MIC (μg/mL) of Exemplary Compounds in presence of fixed β-lactams: K. p. 11978 OXA-48 [5] | MIC (μg/mL) of Exemplary Compounds in presence of fixed β-lactams: E. cl. 144200 p99 AmpC [6]
NCCn1nnnc1CC(=O)N[C@H]1Cc2cccc(C(=O)O)c2OB1O [Example 41, (R)-3-(2-(1-(2-aminoethyl)-1H-tetrazol-5-yl)acetamido)-2-hydroxy-3,4-dihydro-2H-benzo[e][1,2]oxaborinine-8-carboxylic acid] | < 0.1 | < 0.1 | C (C represents an MIC of <1 μg/mL) | < 0.1 | C (C represents an MIC of <1 μg/mL) | C (C represents an MIC of <1 μg/mL) | < 0.1 | C (C represents an MIC of <1 μg/mL) | 0.1 to 1 | B (B represents an MIC between 1 and 16 μg/mL inclusive) | C (C represents an MIC of <1 μg/mL)
NCCn1nnc(CC(=O)N[C@H]2Cc3cccc(C(=O)O)c3OB2O)n1 [Example 42, (R)-3-(2-(2-(2-aminoethyl)-2H-tetrazol-5-yl)acetamido)-2-hydroxy-3,4-dihydro-2H-benzo[e][1,2]oxaborinine-8-carboxylic acid] | < 0.1 | < 0.1 | C (C represents an MIC of <1 μg/mL) | < 0.1 | C (C represents an MIC of <1 μg/mL) | C (C represents an MIC of <1 μg/mL) | < 0.1 | C (C represents an MIC of <1 μg/mL) | 0.1 to 1 | B (B represents an MIC between 1 and 16 μg/mL inclusive) | C (C represents an MIC of <1 μg/mL)
O=C(Cn1nnnc1CC(=O)N[C@H]1Cc2cccc(C(=O)O)c2OB1O)N[C@H]1CCNC1 [Example 43, (R)-2-hydroxy-3-(2-(1-(2-oxo-2-(((S)-pyrrolidin-3-yl)amino)ethyl)-1H-tetrazol-5-yl)acetamido)-3,4-dihydro-2H-benzo[e][1,2]oxaborinine-8-carboxylic acid] | < 0.1 | < 0.1 | C (C represents an MIC of <1 μg/mL) | < 0.1 | C (C represents an MIC of <1 μg/mL) | B (B represents an MIC between 1 and 16 μg/mL inclusive) | < 0.1 | C (C represents an MIC of <1 μg/mL) | 0.1 to 1 | B (B represents an MIC between 1 and 16 μg/mL inclusive) | C (C represents an MIC of <1 μg/mL)
O=C(Cn1nnc(CC(=O)N[C@H]2Cc3cccc(C(=O)O)c3OB2O)n1)N[C@H]1CCNC1 [Example 44] | < 0.1 | < 0.1 | C (C represents an MIC of <1 μg/mL) | < 0.1 | B (B represents an MIC between 1 and 16 μg/mL inclusive) | B (B represents an MIC between 1 and 16 μg/mL inclusive) | < 0.1 | C (C represents an MIC of <1 μg/mL) | 0.1 to 1 | B (B represents an MIC between 1 and 16 μg/mL inclusive) | C (C represents an MIC of <1 μg/mL)
N=C(N)NCCn1nnnc1CC(=O)N[C@H]1Cc2cccc(C(=O)O)c2OB1O [Example 47, (R)-3-(2-(1-(2-guanidinoethyl)-1H-tetrazol-5-yl)acetamido)-2-hydroxy-3,4-dihydro-2H-benzo[e][1,2]oxaborinine-8-carboxylic acid] | < 0.1 | < 0.1 | C (C represents an MIC of <1 μg/mL) | < 0.1 | C (C represents an MIC of <1 μg/mL) | B (B represents an MIC between 1 and 16 μg/mL inclusive) | < 0.1 | C (C represents an MIC of <1 μg/mL) | 1 to 10 | C (C represents an MIC of <1 μg/mL) | C (C represents an MIC of <1 μg/mL)
N=C(N)NCCn1nnc(CC(=O)N[C@H]2Cc3cccc(C(=O)O)c3OB2O)n1 [Example 48, (R)-3-(2-(2-(2-guanidinoethyl)-2H-tetrazol-5-yl)acetamido)-2-hydroxy-3,4-dihydro-2H-benzo[e][1,2]oxaborinine-8-carboxylic acid] | < 0.1 | < 0.1 | C (C represents an MIC of <1 μg/mL) | < 0.1 | B (B represents an MIC between 1 and 16 μg/mL inclusive) | B (B represents an MIC between 1 and 16 μg/mL inclusive) | < 0.1 | C (C represents an MIC of <1 μg/mL) | 1 to 10 | B (B represents an MIC between 1 and 16 μg/mL inclusive) | C (C represents an MIC of <1 μg/mL)
CN(C)CCn1nnnc1CC(=O)N[C@H]1Cc2cccc(C(=O)O)c2OB1O [Example 49, (R)-3-(2-(1-(2-(dimethylamino)ethyl)-1H-tetrazol-5-yl)acetamido)-2-hydroxy-3,4-dihydro-2H-benzo[e][1,2]oxaborinine-8-carboxylic acid] | < 0.1 | < 0.1 | C (C represents an MIC of <1 μg/mL) | 0.1 to 1 | C (C represents an MIC of <1 μg/mL) | B (B represents an MIC between 1 and 16 μg/mL inclusive) | < 0.1 | B (B represents an MIC between 1 and 16 μg/mL inclusive) | 0.1 to 1 | B (B represents an MIC between 1 and 16 μg/mL inclusive) | C (C represents an MIC of <1 μg/mL)
